Assay results taken from patent USRE38132E1, “Phenylpyrrolidines, phenylimidazolidines,3-phenyl-1,3-oxizolidines and 3-phenyl-1,3-thiazolidines and their use in the treatment of inflammatory disease” (Boehringer Ingelheim Pharmaceuticals, Inc., priority 1997, dated 2003).

Columns and labels:
[1] = test system: LFA-1 dependent aggregation of JY cells; assay: JY cell homotypic aggregation assay (PMA-stimulated); format: cell-based, human; conditions: Homo sapiens
In short: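 Homotypic aggregation of EBV-transformed JY cells, stimulated by phorbol myristate acetate ([…]), scored visually over time in compound presence at 2·10^5 cells/well in serum-supplemented RPMI 1640. Result given as μM concentration or range inhibiting binding by 50%.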

[2] = test system: allogeneic cell transplant response, popliteal lymph node; assay: In vivo allogeneic cell transplant model (popliteal lymph node weight); conditions: Mus musculus, po; mice, per os, dose at which 50% inhibition is observed; read-out: Allogeneic Cell Transplantation Assay ACT ED50
Excerpt: In vivo: Allogeneic Cell Transplant Model Purpose of Assay: The ability of cells to recognize other cells from self or from another genetically different individual (non-self) is an important property in maintaining the integrity of tissue and organ structure. The allogeneic cell transplant response is an important model for studies of transplant rejection and immunocompetence. This T-cell-mediated immune response can be induced in adult mice by the injection of lymphocytes from a histoincompatible mouse strain into the footpad . This response is characterized by T-cell proliferation which is limited to the popliteal lymph node that receives drainage from the injected footpad area. No in vitro system can completely duplicate this in vivo response. Thus, this animal model can be used to assess the ability of a test compound to suppress transplant rejection. Description of Assay Protocol: Experiments are conducted using male or female mice (20-26 grams). Any histoincompatible mouse strains suffice for donor and recipient populations. Typically DBA mice are used as donors and […] mice are used as recipients. A minimum of 1 week stabilization and conditioning period is required before use during which time the animals are maintained in accordance with the Animal Resource Center S.O.P. Each study utilizes 36 recipient mice divided into groups of 6. The tests last approximately four days. Donor mice are sacrificed by CO2 asphyxiation and spleens are removed and made into a cell suspension. The cells (1.0·10^7/metatarsal in 0.05 mL) are injected intra dermal (according to standard protocol) into the dorsal metatarsal skin of recipient mice. Four days later, the animals are sacrificed by CO2 asphyxiation and the popliteal nodes are removed and weighed. Groups of mice receiving putative immunosuppressive agents are dosed subcutaneously, intraperitoneally or orally one hour prior to cell injection and daily thereafter according to standard protocol. Student's T-test was used to determine significant differences between popliteal lymph nodes of groups of untreated mice and those mice treated with putative immunosuppressive agents (see: Kroczek, R. A.; Black, C. D. V.; Barbet, […]. Immunology, 1987, 139, 3597). Data are reported as the dose at which 50% inhibition is observed and the manner in which the compound was administered. In Table 23, the following legends are applicable: ^and=not determined. ^bpercent inhibition at 160 μg/mL. ^cno inhibition observed up to highest dose. Exact quantification not always possible due to intrinsic toxicity of compound (see MTT result). ^[…] inhibition (concentration in μM ). ^eapproximated from incomplete dose-response curve. ^fnot determined; compound is a synthesis intermediate.

[3] = target: T1, interaction of ICAM-1 with the Leukointegrin CD18/CD11a (LFA-1) (Homo sapiens, UniProt P05107+P20701); assay: Assay to determine inhibition of LFA-1 binding to ICAM-1 (immunopurified LFA-1 on plate-bound sICAM-1, ELISA readout); conditions: values marked e approximated from incomplete dose-response curve
T1 construct: endogenous in cells; sICAM-1: made in house, secreted from transfected CHO DUX cells
T1 sequence (P20701 26-1170): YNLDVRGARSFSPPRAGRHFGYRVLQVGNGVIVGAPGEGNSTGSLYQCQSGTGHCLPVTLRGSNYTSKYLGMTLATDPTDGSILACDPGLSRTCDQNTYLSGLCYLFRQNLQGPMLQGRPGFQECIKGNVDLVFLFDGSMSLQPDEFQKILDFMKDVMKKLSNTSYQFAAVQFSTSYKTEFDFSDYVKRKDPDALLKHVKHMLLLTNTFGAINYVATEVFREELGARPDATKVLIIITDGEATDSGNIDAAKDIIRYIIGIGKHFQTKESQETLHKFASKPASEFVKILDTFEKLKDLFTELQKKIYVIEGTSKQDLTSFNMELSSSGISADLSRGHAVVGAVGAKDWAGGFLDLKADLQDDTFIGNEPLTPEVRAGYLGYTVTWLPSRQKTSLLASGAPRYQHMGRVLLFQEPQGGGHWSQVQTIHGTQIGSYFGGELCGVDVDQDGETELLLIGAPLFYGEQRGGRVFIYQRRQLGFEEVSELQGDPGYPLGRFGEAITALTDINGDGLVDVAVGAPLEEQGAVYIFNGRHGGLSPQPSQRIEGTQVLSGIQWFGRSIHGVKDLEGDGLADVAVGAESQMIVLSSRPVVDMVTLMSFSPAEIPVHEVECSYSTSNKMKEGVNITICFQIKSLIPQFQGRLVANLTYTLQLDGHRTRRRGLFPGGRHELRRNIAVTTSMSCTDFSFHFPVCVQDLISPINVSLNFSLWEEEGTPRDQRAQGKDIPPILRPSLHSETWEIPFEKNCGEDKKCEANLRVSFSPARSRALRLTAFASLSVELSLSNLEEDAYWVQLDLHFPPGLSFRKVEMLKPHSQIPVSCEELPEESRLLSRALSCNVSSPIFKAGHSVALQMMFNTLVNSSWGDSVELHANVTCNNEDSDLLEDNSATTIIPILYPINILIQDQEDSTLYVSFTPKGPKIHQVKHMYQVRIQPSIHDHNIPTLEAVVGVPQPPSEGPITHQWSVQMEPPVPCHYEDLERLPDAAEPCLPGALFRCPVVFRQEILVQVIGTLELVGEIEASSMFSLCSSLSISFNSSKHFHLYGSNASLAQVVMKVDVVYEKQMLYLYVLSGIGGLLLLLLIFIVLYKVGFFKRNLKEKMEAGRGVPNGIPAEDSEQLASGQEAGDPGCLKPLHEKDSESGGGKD
T1 sequence (P05107 23-769): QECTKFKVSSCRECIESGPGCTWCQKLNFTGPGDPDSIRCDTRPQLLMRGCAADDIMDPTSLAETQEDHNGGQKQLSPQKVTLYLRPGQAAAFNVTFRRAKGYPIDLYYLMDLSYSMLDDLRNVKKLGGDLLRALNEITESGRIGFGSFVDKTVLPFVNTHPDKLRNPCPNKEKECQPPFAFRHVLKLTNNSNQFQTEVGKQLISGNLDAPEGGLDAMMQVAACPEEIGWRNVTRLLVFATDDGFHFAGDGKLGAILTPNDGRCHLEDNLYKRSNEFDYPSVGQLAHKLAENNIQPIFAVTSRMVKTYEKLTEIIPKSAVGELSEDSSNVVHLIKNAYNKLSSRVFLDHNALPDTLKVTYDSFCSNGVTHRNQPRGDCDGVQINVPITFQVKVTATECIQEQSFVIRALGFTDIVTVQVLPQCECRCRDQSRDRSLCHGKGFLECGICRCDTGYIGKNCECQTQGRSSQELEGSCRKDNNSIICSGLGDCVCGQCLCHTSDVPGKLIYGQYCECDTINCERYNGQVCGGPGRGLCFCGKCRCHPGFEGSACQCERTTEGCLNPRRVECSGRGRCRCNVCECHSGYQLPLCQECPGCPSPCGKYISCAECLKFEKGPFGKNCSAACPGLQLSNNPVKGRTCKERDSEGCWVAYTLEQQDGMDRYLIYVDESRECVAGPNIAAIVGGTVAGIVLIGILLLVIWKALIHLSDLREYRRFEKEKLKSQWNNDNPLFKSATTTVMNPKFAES
Excerpt: Assay to Determine Inhibition of LFA-1 Binding to ICAM-1 Purpose of Assay: This assay protocol is designed to study the direct antagonism, by a test compound, of the interaction of the CAM, ICAM-1 with the Leukointegrin CD18/CD11a (LFA-1). […] After collection and neutralization of fractions from the TS2/4 column, samples are pooled and precleared with Protein G agarose. […] Wells are washed 3 times with Diluting Buffer. The bound LFA-1 is detected by the addition of a polyclonal antibody directed against a peptide corresponding to the CD18 cytoplasmic tail in a 1:100 dilution with Diluting Buffer and 1% BSA and allowed to incubate for 45 min at 37° C. Wells are washed 3 times with Diluting Buffer and the bound polyclonal antibody is detected by the addition of a 1:4000 dilution of horse radish peroxidase conjugated to goat immunoglobulin directed against rabbit immunoglobulin. […] The lack of the addition of LFA-1 to the binding assay is used as a background control for all samples. A dose-response curve is obtained for all test compounds. Results of these tests are reported as Kd's in μM.

SMILES	IC50 [1] [nM]	ED50 [2] [mg/kg]	Cellular Toxicity Assay MTT LD50 (SKW3 cells) [µM]	Kd [3] [nM]
C[C@]1(Cc2ccc(Br)cc2)NC(=O)N(c2cc(Cl)cc(Cl)c2)C1=O [Example 29]	100	~60	63 to 125	–
CC(=O)N1C(=O)N(c2cc(Cl)cc(Cl)c2)C(=O)[C@@]1(C)Cc1ccc(Br)cc1 [Example 102]	1300	~25	>400	60
